The text below walks through data of PubChem BioAssay AID1259407 (Chemical Carcinogenesis Research Information System (CCRIS), 2018).

Activity calls are given as the source filed them. The rule behind the calls is not given here.

The subject of this data set is CCRIS mutagenicity, Ames/micronucleus/aberration tests. Nature of the data set: CCRIS mutagenicity studies.
[1] abbreviates: Test System: AMES SALMONELLA TYPHIMURIUM, Strain/Indicator: TA98, Metabolic Activation: HAMSTER, LIVER, S-9, AROCLOR 1254, Method: STANDARD PLATE.
The mark [2] stands for this setting: Test System: AMES SALMONELLA TYPHIMURIUM, Strain/Indicator: TA98, Metabolic Activation: NONE, Method: STANDARD PLATE.
Setting [3] is: Test System: AMES SALMONELLA TYPHIMURIUM, Strain/Indicator: TA98, Metabolic Activation: RAT, LIVER, S-9, AROCLOR 1254, Method: STANDARD PLATE.
Setting [4] is: Test System: AMES SALMONELLA TYPHIMURIUM, Strain/Indicator: TA100, Metabolic Activation: HAMSTER, LIVER, S-9, AROCLOR 1254, Method: STANDARD PLATE.
[5] abbreviates: Test System: AMES SALMONELLA TYPHIMURIUM, Strain/Indicator: TA100, Metabolic Activation: NONE, Method: STANDARD PLATE.
Where [6] appears, read: Test System: AMES SALMONELLA TYPHIMURIUM, Strain/Indicator: TA100, Metabolic Activation: RAT, LIVER, S-9, AROCLOR 1254, Method: STANDARD PLATE.
Where [7] appears, read: Test System: AMES SALMONELLA TYPHIMURIUM, Strain/Indicator: TA1535, Metabolic Activation: HAMSTER, LIVER, S-9, AROCLOR 1254, Method: STANDARD PLATE.
Setting [8] is: Test System: AMES SALMONELLA TYPHIMURIUM, Strain/Indicator: TA1535, Metabolic Activation: NONE, Method: STANDARD PLATE.
The mark [9] stands for this setting: Test System: AMES SALMONELLA TYPHIMURIUM, Strain/Indicator: TA1535, Metabolic Activation: RAT, LIVER, S-9, AROCLOR 1254, Method: STANDARD PLATE.
The mark [10] stands for this setting: Test System: AMES SALMONELLA TYPHIMURIUM, Strain/Indicator: TA1537, Metabolic Activation: HAMSTER, LIVER, S-9, AROCLOR 1254, Method: STANDARD PLATE.
The mark [11] stands for this setting: Test System: AMES SALMONELLA TYPHIMURIUM, Strain/Indicator: TA1537, Metabolic Activation: NONE, Method: STANDARD PLATE.
The mark [12] stands for this setting: Test System: AMES SALMONELLA TYPHIMURIUM, Strain/Indicator: TA1537, Metabolic Activation: RAT, LIVER, S-9, AROCLOR 1254, Method: STANDARD PLATE.
Setting [13] is: Test System: AMES SALMONELLA TYPHIMURIUM, Strain/Indicator: TA1538, Metabolic Activation: HAMSTER, LIVER, S-9, AROCLOR 1254, Method: STANDARD PLATE.
Where [14] appears, read: Test System: AMES SALMONELLA TYPHIMURIUM, Strain/Indicator: TA1538, Metabolic Activation: NONE, Method: STANDARD PLATE.
Where [15] appears, read: Test System: AMES SALMONELLA TYPHIMURIUM, Strain/Indicator: TA1538, Metabolic Activation: RAT, LIVER, S-9, AROCLOR 1254, Method: STANDARD PLATE.
Where [16] appears, read: Test System: MOUSE LYMPHOMA, Strain/Indicator: L5178Y (TK+/TK-), Metabolic Activation: NONE, Method: SUSPENSION/PLATE.
Where [17] appears, read: Test System: MOUSE LYMPHOMA, Strain/Indicator: L5178Y (TK+/TK-), Metabolic Activation: RAT, LIVER, S-9, AROCLOR 1254, Method: SUSPENSION/PLATE.

On to `CCCCC=O`, for which the mutagenic call is “inactive; negative” under setting [1]; “inactive; negative” under setting [2]; “inactive; negative” under setting [3]; “inactive; negative” under setting [4]; “inactive; negative” under setting [5]; “inactive; negative” under setting [6]. Also, the mutagenic call is, setting by setting: under setting [7], “inactive; negative”; under setting [8], “inactive; negative”; under setting [9], “inactive; negative”; under setting [10], “inactive; negative”; under setting [11], “inactive; negative”; under setting [12], “inactive; negative”. The mutagenic call by setting is: under setting [13], “inactive; negative”; under setting [14], “inactive; negative”; under setting [15], “inactive; negative”; (Test System: CHINESE HAMSTER V-79, Strain/Indicator: V-79/6-THIOGUANINE (HGPRT), Metabolic Activation: NONE, Method: REPLATING) “active; positive”; (Test System: CHINESE HAMSTER V-79, Strain/Indicator: V-79/OUABAIN (NA/K), Metabolic Activation: NONE, Method: REPLATING) “active; positive”; under setting [16], “active; positive. reevaluation of results: positive”. For the same molecule, the mutagenic call reads like this: under setting [17], “inactive; negative. reevaluation of results: negative”; (Test System: UDS HUMAN HEPATOCYTES, Strain/Indicator: THY INCORP, Metabolic Activation: NONE, Method: AUTORADIOGRAPHY) “inactive; negative”; (Test System: UDS RAT HEPATOCYTES, Strain/Indicator: THY INCORP, Metabolic Activation: NONE, Method: AUTORADIOGRAPHY) “active; positive”.
For the molecule `Clc1cc(Cl)c(Cl)cc1Cl`, the mutagenic call runs as follows: (End Point: IN VITRO CHROMOSOMAL ABERRATIONS, Test System: CHO-LB CELLS, Metabolic Activation: NONE) “inactive; negative”; (End Point: IN VITRO CHROMOSOMAL ABERRATIONS, Test System: CHO-LB CELLS, Metabolic Activation: RAT, LIVER, S-9, AROCLOR 1254) “inactive; negative”; under setting [1], “inactive; negative”; under setting [2], “inactive; negative”; under setting [3], “inactive; negative”; under setting [4], “inactive; negative”. The mutagenic call under setting [5] is “inactive; negative”; the mutagenic call under setting [6] is “inactive; negative”; the mutagenic call under setting [7] was “inactive; negative”; the mutagenic call under setting [8] was “inactive; negative”; the mutagenic call under setting [9] was “inactive; negative”; the mutagenic call under setting [10] is “inactive; negative”. The mutagenic call is “inactive; negative” under setting [11]; “inactive; negative” under setting [12]; “inactive; negative” under setting [13]; “inactive; negative” under setting [14]; “inactive; negative” under setting [15]; “inactive; negative. reevaluation of results: negative” under setting [16]. In addition, the mutagenic call under setting [17] is “inactive; negative. reevaluation of results: negative”.
`COC(=O)Nc1nc2ccc(OS(=O)(=O)c3ccc(F)cc3)cc2[nH]1`: the mutagenic call by setting is: under setting [2], “inactive; negative”; under setting [3], “inactive; negative”; under setting [5], “inactive; negative”; under setting [6], “inactive; negative”; under setting [8], “inactive; negative”; under setting [9], “inactive; negative”. Besides, the mutagenic call under setting [14] is “inactive; negative”; the mutagenic call under setting [15] was “inactive; negative”; the mutagenic call (Test System: E. COLI, Strain/Indicator: WP2, Metabolic Activation: NONE, Method: STANDARD PLATE) is “inactive; negative”; the mutagenic call (Test System: E. COLI, Strain/Indicator: WP2, Metabolic Activation: RAT, LIVER, S-9, AROCLOR 1254, Method: STANDARD PLATE) is “inactive; negative”; the mutagenic call (Test System: E. COLI, Strain/Indicator: WP2 UVRA (PKM101), Metabolic Activation: NONE, Method: STANDARD PLATE) is “inactive; negative”; the mutagenic call (Test System: E. COLI, Strain/Indicator: WP2 UVRA (PKM101), Metabolic Activation: RAT, LIVER, S-9, AROCLOR 1254, Method: STANDARD PLATE) is “inactive; negative”. Also, the mutagenic call by setting is: (Test System: E. COLI, Strain/Indicator: WP2 UVRA, Metabolic Activation: NONE, Method: STANDARD PLATE) “inactive; negative”; (Test System: E. COLI, Strain/Indicator: WP2 UVRA, Metabolic Activation: RAT, LIVER, S-9, AROCLOR 1254, Method: STANDARD PLATE) “inactive; negative”.
Regarding `ONc1cccc(-c2ccccc2)c1`, the mutagenic call was “inactive; negative” under setting [2] and “inactive; negative” under setting [5].
Regarding `Nc1ccc(Cl)cc1[N+](=O)[O-]`, the mutagenic call is “inactive; negative; precipitation occurred at 252 ug/ml” (End Point: IN VITRO CHROMOSOMAL ABERRATIONS, Test System: CHINESE HAMSTER OVARY CELLS, Metabolic Activation: NONE); “active; positive; precipitation occurred at all doses” (End Point: IN VITRO CHROMOSOMAL ABERRATIONS, Test System: CHINESE HAMSTER OVARY CELLS, Metabolic Activation: RAT, LIVER, S-9, AROCLOR 1254); “inactive; negative” (Test System: AMES SALMONELLA TYPHIMURIUM, Strain/Indicator: TA98(NR), Metabolic Activation: NONE, Method: STANDARD PLATE); “inactive; negative” (Test System: AMES SALMONELLA TYPHIMURIUM, Strain/Indicator: TA98, Metabolic Activation: NONE, Method: PREINCUBATION); “active; positive” (Test System: AMES SALMONELLA TYPHIMURIUM, Strain/Indicator: TA98, Metabolic Activation: RAT, LIVER, S-9, KANECHLOR 500, Method: PREINCUBATION); “inactive; negative” (Test System: AMES SALMONELLA TYPHIMURIUM, Strain/Indicator: TA100, Metabolic Activation: NONE, Method: PREINCUBATION). The mutagenic call was “active; positive” under setting [14]; “active; positive” under setting [15]; “active; positive” (Test System: AMES SALMONELLA TYPHIMURIUM, Strain/Indicator: YG1020, Metabolic Activation: NONE, Method: STANDARD PLATE); “active; positive” (Test System: AMES SALMONELLA TYPHIMURIUM, Strain/Indicator: YG1021, Metabolic Activation: NONE, Method: STANDARD PLATE); “active; positive” (Test System: AMES SALMONELLA TYPHIMURIUM, Strain/Indicator: YG1024, Metabolic Activation: NONE, Method: STANDARD PLATE).
